The record followed here is PubChem BioAssay (NCI).

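Each compound was tested at five concentrations against cells in 96-well plates for 48 hours. GI50: concentration for 50% inhibition of growth. TGI: concentration producing complete growth inhibition.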 Bounds are passed on as bounds.

Assay in all cases: NCI-60 cell line screen, 48 h
Experiment [1] relates to 786-0 renal.
For experiment [2], the system named is SK-MEL-28 melanoma.
For experiment [3], the system named is MCF7 breast.
The test system of experiment [4] is SK-MEL-5 melanoma.
Experiment [5] concerns MDA-MB-231 breast.
The test system of experiment [6] is HCT-116 colon.
The subject of experiment [7] is UACC-62 melanoma.
For experiment [8], the system named is MDA-MB-435.
For experiment [9], the system named is OVCAR-4 ovarian.
Experiment [10] deals with SN12C renal.

With `CC1(C)N=C(N)N=C(N)N1c1cc(Cl)ccc1Cl`, the GI50 in experiment [1] was above 100 µM; in experiment [2], above 100 µM; in experiment [3], above 100 µM; in [4], above 100 µM; in experiment [5], above 100 µM; in [6], 93.8 µM. For the same molecule, the GI50 is above 100 µM in experiment [7], above 100 µM in experiment [8], 86.8 µM in experiment [9] and above 100 µM in experiment [10]. For the same molecule, the TGI in experiment [1], in [2], in experiment [3], in experiment [4], in [5] and in [6] was above 100 µM in each case. For the same molecule, the TGI in experiment [7], in experiment [8], in experiment [9] and in [10] was above 100 µM each time.
On to `O=C(Nc1ccc(Cl)cc1)c1cc2ccccc2cc1O`, for which the GI50 is 3.81 µM in [1]; 7.62 µM in [2]; 1.9 µM in experiment [3]; 1.84 µM in experiment [4]; 5.83 µM in experiment [5]; 2.19 µM in experiment [6]. In addition, the GI50 in experiment [7] was 0.899 µM; in [8], 3.84 µM; in [9], 4.41 µM; in experiment [10] it was 2.46 µM. The TGI in [1] was above 100 µM; in experiment [2], above 100 µM; in experiment [3] it was above 100 µM; in experiment [4] it was 5.51 µM; in experiment [5], above 100 µM; in experiment [6], 16.5 µM. For the same molecule, the TGI in experiment [7], in experiment [8], in experiment [9] and in experiment [10] was above 100 µM throughout.
For `COc1nc(C)cc2c(=O)n(-c3ccccc3)n(CCCN3CCN(c4ccc(Cl)cc4)CC3)c(=O)c12`, the GI50 in experiment [1] was 31.2 µM; in [2] it was above 50 µM; in experiment [3], 37.7 µM; in [4], 16.9 µM; in experiment [5] it was 39.5 µM; in experiment [6], 27.5 µM. Also, the GI50 in experiment [7] is 39.9 µM; in [8] it was above 50 µM; in experiment [9], 17.6 µM; in [10], above 50 µM. Besides, the TGI in experiment [1], in experiment [2], in experiment [3], in experiment [4], in [5] and in experiment [6] was above 50 µM in each case. For the same molecule, the TGI in experiment [7], in experiment [8], in experiment [9] and in [10] was above 50 µM each time.
As to `O=C(Oc1ccc(CCl)cc1)c1ccccc1`, the GI50 is 0.125 µM in [1]; 0.159 µM in [2]; 0.179 µM in experiment [3]; 0.447 µM in [4]; 0.149 µM in [5]; 0.138 µM in experiment [6]. For the same molecule, the GI50 was 0.164 µM in [7], 0.155 µM in [8] and 0.159 µM in [9]. Also, the TGI was determined as 0.286 µM in experiment [1]; 0.315 µM in experiment [2]; 0.525 µM in [3]; 1.64 µM in experiment [4]; 0.311 µM in experiment [5]; 0.426 µM in [6]. Further, the TGI in [7] amounted to 0.361 µM; in experiment [8] it was 0.299 µM; in experiment [9], 0.313 µM.
For the molecule `S=C(Nc1ccc(Cl)cc1)Nc1ccc(-c2nc3ccccc3[nH]2)cc1`, the GI50 in experiment [1] is 10.2 µM; in experiment [4] it was 6.37 µM; in [5], 3.14 µM; in experiment [6], 12.3 µM; in [7], 5.15 µM; in experiment [8], 9.11 µM. Also, the GI50 in experiment [9] was 15.4 µM; in [10], 6.55 µM. The TGI was 22.8 µM in experiment [1]; 35.5 µM in experiment [2]; above 41.5 µM in experiment [3]; 23.2 µM in experiment [4]; 12.8 µM in experiment [5]; 24.7 µM in [6]. The TGI is 14.8 µM in [7], 26.6 µM in experiment [8], above 84.3 µM in [9] and 23.7 µM in experiment [10].
In the case of `COc1ccc(-c2nc(-c3ccccc3)c(-c3ccccc3)n2C2CC2)cc1OC1CCCC1`, the GI50 in experiment [1] is 98.2 µM; in experiment [2], above 165 µM; in experiment [3], 67.6 µM; in [4], 16.7 µM; in [5], above 165 µM; in [6] it was 14.1 µM. In addition, the GI50 in experiment [8] was 147 µM; in [9] it was 97.4 µM; in experiment [10] it was 128 µM. Besides, the TGI in [1] was above 165 µM; in [2] it was above 165 µM; in [3], above 165 µM; in experiment [4], 125 µM; in experiment [5] it was above 165 µM; in experiment [6], above 165 µM. The TGI in experiment [8], in experiment [9] and in experiment [10] was above 165 µM each time.
